Measurements taken from patent publication EP0273199A2, “Uses of 3,4-diphenyl piperidine derivatives or medicines, 3,4-diphenyl piperidine derivatives, and process for their preparation” (LABORATOIRES HOECHST S.A., priority 1986, dated 1988).
Where two headings read alike, the source gives them in different places.

Tests used:
[1] = test system: durch Reserpin induzierten Hypothermie; test: Antireserpine activity (reserpine-induced hypothermia); format: in vivo, Maus; details: ip
Method: Zur Zeit 0 erhalten die Mäuse intraperitoneal Reserpin (2,5 mg/kg).
4 Stunden danach, wenn die Hypothermie genügend stark erscheint (30 bis 33°C), verabreicht man die verschiedenen zu untersuchenden Verbindungen i.p. oder p.o. Alle 30 Minuten über einen Zeitraum von 2 Stunden mißt man die Rektaltemperatur mit einer auf konstante Tiefe eingeführten, ein Thermoelement tragenden Sonde. Die Rektaltemperatur der mit verschiedenen erfindungsgemäßen Verbindungen behandelten Tiere wird mit der Temperatur einer Kontrollgruppe verglichen, die destilliertes Wasser auf die gleiche Weise wie die untersuchten Verbindungen erhält.
Die Akinesie (fehlende Bewegungen) und Ptose (Öffnungsgrad des Augenlids von 0 bis 4 nach Rubin u.a 1957) werden ebenfalls alle 30 Minuten über einen Zeitraum von 2 Stunden bewertet.
Die eine antidepressive Aktivität besitzenden Produkte wirken der durch Reserpin induzierten Hypothermie entgegen. Für jede Dosis der verabreichten Verbindung berechnet man die prozentuale Hemmung der Hypothermie.

Apomorphin 16 mg/kg = test: Antiapomorphine activity (apomorphine 16 mg/kg s.c., hypothermia); format: in vivo, Maus; details: ip
Method: Zur Zeit 0 nach Ausgleich der Reaktaltemperaturen werden die Mäuse (6 pro Gruppe) in deren Beobachtung gestattende Einzelkäfige (11 x 3,5 x 4 cm) eingeetzt. 30 Minuten nach i.p. bzw. p.o. Verabreichung der Testsubstanz erhalten sie Apomorphin subkutan in einer Dosis von 16 mg/kg. Die Rektaltemperatur wird 30 Minuten nach dem Apomorphin gemessen. Die Kontrolltiere erhalten destilliertes Wasser statt der zu untersuchenden Verbindungen. Die bei diesen Kontrolltieren, die 16 mg/kg Apomorphin erhalten haben, beobachtete Hypothermie liegt im Durchschnitt bei 33°C. Für jede Verbindungsdosis berechnet man die prozentuale Hemmung der Hypothermie.

Toxizität des Yohimbins = test: Potentiation of yohimbine toxicity; format: in vivo, Maus; details: ip
Method: Wirkung auf die Toxizität des Yohimbins
Zur Zeit 0 erhalten die Mäuse entweder destilliertes Wasser oder verschiedene zu untersuchende Verbindungen i.p. 30 Minuten danach verabreicht man ihnen subkutan eine infratoxische Dosis von 25 mg/kg Yohimbinchlorhydrat.
Die Mortalität wird jede Stunde über einen Zeitraum von 4 Stunden verfolgt und dann nach 24 Stunden notiert.
Die eine antidepressive Aktivität besitzenden Produkte verursachen eine Potenzierung der Toxizität des Yohimbins.

Motoraktivität = test: Actimetry (motor activity, photocell actimeter); format: in vivo, Maus; details: for Motilität: i.p., direction of change; for minimal effective dose: ip, read-out: Erste wirksame Dosis Motilität
Excerpt: Die Motoraktivität wird mittels Photozellenaktimetern bestimmt (Boissier und Simon, Arch. Int. Pharmacodyn. 1965, 158, 212-221).
Die Mäuse (10 oder ein Vielfaches von 10 pro Gruppe) werden unmittelbar nach i.p. Verabreichung der zu untersuchenden Verbindungen in das Aktimeter eingesetzt. Die Motoraktivität wird danach bis zur 60. Minute gemessen. De Zähler werden nach 30 Minuten abgelesen und dann auf 0 zurückgestellt und im Verlauf von 30 Minuten alle 10 Minuten abgelesen.
Die Beweglichkeit der mit den verschiedenen Verbindungen behandelten Tiere wird mit derjenigen einer destilliertes Wasser erhaltenden Kontrollgruppe verglichen.
Die eine psychostimulierende Aktivität besitzenden Produkte verursachen eine Zunahme der Beweglichkeit.

Maus [2] = test: Behavioural despair test (Porsolt forced swimming); format: in vivo; details: mouse; for Dauer der Unbeweglichkeit: 30 min before test
Excerpt: Test auf verzweifeltes Verhalten, wie von Porsolt u.a. (Arch. Int, Pharmacodyn. Ther. 229, 327 - 336, 1977) beschrieben.
Die Verbindungen werden intraperetoneal 30 Minuten vor dem Test verabreicht, und die Tiere werden vor dem erzwungenen Schwimmtest isoliert gehalten. Man bewertet die Dauer der Unbeweglichkeitsperioden in Sekunden ausgedrückt, die von der 2. bis zur 6. Minute nach dem Einsetzen des Tieres in Wasser gezählt werden.

Maus [3] = test: Tail suspension test; format: in vivo; details: for minimal effective dose: ip, read-out: Erste wirksame Dosis T.S.T. Maus
Excerpt: Schwanzaufhängungstest an der Maus wie von Stéru u.a. beschrieben (Psychopharmacology 85, 367-370, 1985).
Die Substanzen werden intraperitoneal 30 Minuten vor dem Test verabreicht und die Tiese isoliert (10 Mäuse pro Dosis).
Man bewertet die Dauer der Unbeweglichkeit, ausgedrückt in Sekunden über die 6 Minuten des Tests. Man untersucht auf eine Verkürzung dieser Unbeweglichkeitszeit.

[4] = test system: Apomorphin 1 mg.kg^-1 s.c.; test: Apomorphine 1 mg/kg s.c. antagonism (no method given); format: in vivo; details: ip, Tabelle Ib; read-out: Erste wirksame Dosis Apomorphin 1 mg.kg^-1 s.c.
[5] = test system: durch Oxotremorin induzierten Hypothermie; test: Antioxotremorine activity (oxotremorine-induced hypothermia); format: in vivo, Maus; details: ip, read-out: Erste wirksame Dosis Oxotremorin
Method: Nach Ausgleich der Rektaltemperaturen erhalten Mäuse (6 pro Gruppe) entweder destillietes Wasser oder die verschiedenen zu untersuchenden Verbindungen i.p.
30 Minuten danach verabreicht man intraperitoneal Oxotremorin in einer Dosis von 0,5 mg/kg.
Die Mäuse werden dan beobachtet: Tremor wird je nach der Intensität von 0 bis 3 bewertet, und die Akinesie wird alle 10 Minuten über einen Zeitraum von 30 Minuten auf Vorliegen oder Fehlen bestimmt.
Außerdem beobachtet man 2 Stunden lang das Erscheinen peripherer Symptome (Tränen, Darmentleerung). Die Rektaltemperatur wird alle 30 Minuten über eine Zeitraum von 2 Stunden nach der Verabreichung des Oxotremorins gemessen.
Die eine antidepressive Aktivität besitzenden Produkte wirken der durch Oxotremorin induzierten Hypothermie entgegen.
Für jede Dosis der Verbindung berechnet man die prozentuale Hemmung der Hypothermie.

[6] = Tabelle Ib, read-out: Erste wirksame Dosis Reserpin
[7] = Tabelle Ib, read-out: Erste wirksame Dosis Apomorphin 16 mg.kg^-1 s.c.
[8] = Tabelle Ib, read-out: Erste wirksame Dosis Yohimbin

Q: With `CN(C)CCCN1c2ccccc2CCc2ccccc21` [IMIPRAMIN] as the compound, how does the minimal effective dose [1, 6] read?
A: The minimal effective dose was 2 mg/kg.

Q: What about the minimal effective dose (Apomorphin 16 mg/kg; [7]) of the same compound?
A: The minimal effective dose was 4 mg/kg.

Q: And the minimal effective dose (Toxizität des Yohimbins; [8])?
A: The minimal effective dose was 16 mg/kg.

Q: And the Motilität (Motoraktivität; Tabelle Ib)?
A: The Motilität was “↘”.

Q: What about the minimal effective dose (Motoraktivität; Tabelle Ib) of the same compound?
A: The minimal effective dose was 128 mg/kg.

Q: And the “% Antagonismus” value (Maus [2]; 16 mg/kg i.p.)?
A: The value was 37%.

Q: And the “Dauer der Unbeweglichkeit” value (Maus [2]; 16 mg/kg i.p.)?
A: The value was 112 ± 23 p < 0,05 Sekunden.

Q: And the minimal effective dose (Maus [3]; Tabelle Ib)?
A: The minimal effective dose was 1 to 4 mg/kg.

Q: And the “% Antagonismus” value (Maus [3]; mouse, 1 mg/kg i.p.)?
A: Its value is 31%.

Q: What about the “Dauer der Unbeweglichkeit” value (Maus [3]; mouse, 1 mg/kg i.p.) of the same compound?
A: Its value is 70 ± 17 Sekunden.

Q: What about the “% Antagonismus” value (Maus [3]; mouse, 2 mg/kg i.p.) of the same compound?
A: Its value is 42%.

Q: And the “Dauer der Unbeweglichkeit” value (Maus [3]; mouse, 2 mg/kg i.p.)?
A: The value was 59 ± 8 p < 0,01 Sekunden.

Q: And the “% Antagonismus” value (Maus [3]; mouse, 4 mg/kg i.p.)?
A: The value was 48%.

Q: And the “Dauer der Unbeweglichkeit” value (Maus [3]; mouse, 4 mg/kg i.p.)?
A: Its value is 53 ± 11 p < 0,01 Sekunden.

Q: What about the “% Antagonismus” value (Maus [3]; mouse, 8 mg/kg i.p.) of the same compound?
A: Its value is 58%.

Q: What about the “Dauer der Unbeweglichkeit” value (Maus [3]; mouse, 8 mg/kg i.p.) of the same compound?
A: Its value is 48 ± 10 p < 0,01 Sekunden.

Q: What about the “% Antagonismus” value (Maus [3]; mouse, 16 mg/kg i.p.) of the same compound?
A: The value was 73%.

Q: What about the “Dauer der Unbeweglichkeit” value (Maus [3]; mouse, 16 mg/kg i.p.) of the same compound?
A: The value was 28 ± 7 p < 0,001 Sekunden.

Q: And the minimal effective dose [4]?
A: Its minimal effective dose is 8 mg/kg.

Q: For `CN1CCN2c3ccccc3Cc3ccccc3C2C1` (stereo not drawn) [MIANSERIN, reference compound], which minimal effective dose [1, 6] is on record?
A: The minimal effective dose was over 32 mg/kg.

Q: And the minimal effective dose (Apomorphin 16 mg/kg; [7])?
A: The minimal effective dose was 64 mg/kg.

Q: And the minimal effective dose ([5]; Tabelle Ib)?
A: Its minimal effective dose is 32 mg/kg.

Q: And the Motilität (Motoraktivität; Tabelle Ib)?
A: The Motilität was “↘”.

Q: And the minimal effective dose (Motoraktivität; Tabelle Ib)?
A: The minimal effective dose was 32 mg/kg.

Q: And the minimal effective dose [4]?
A: The minimal effective dose was 64 mg/kg.

Q: How did the minimal effective dose [1, 6] turn out when `CN1Cc2c(N)cccc2C(c2ccccc2)C1` (stereo not drawn) [NOMIFENSIN] was run?
A: Its minimal effective dose is 8 mg/kg.

Q: And the minimal effective dose (Apomorphin 16 mg/kg; [7])?
A: The minimal effective dose was 2 mg/kg.

Q: What about the minimal effective dose [5] of the same compound?
A: The minimal effective dose was 16 mg/kg.

Q: What about the minimal effective dose (Toxizität des Yohimbins; [8]) of the same compound?
A: Its minimal effective dose is 4 mg/kg.

Q: What about the Motilität (Motoraktivität; Tabelle Ib) of the same compound?
A: The Motilität was “↗”.

Q: And the minimal effective dose (Motoraktivität; Tabelle Ib)?
A: The minimal effective dose was 4 mg/kg.

Q: What about the “% Antagonismus” value (Maus [2]; 4 mg/kg i.p.) of the same compound?
A: Its value is 39%.

Q: And the “Dauer der Unbeweglichkeit” value (Maus [2]; 4 mg/kg i.p.)?
A: Its value is 120 ± 23 p < 0,001 Sekunden.

Q: And the minimal effective dose (Maus [3]; Tabelle Ib)?
A: The minimal effective dose was 0.25 mg/kg.

Q: What about the “% Antagonismus” value (Maus [3]; mouse, 0,06 mg/kg i.p.) of the same compound?
A: The value was 35%.

Q: And the “Dauer der Unbeweglichkeit” value (Maus [3]; mouse, 0,06 mg/kg i.p.)?
A: Its value is 59 ± 9 Sekunden.

Q: What about the “% Antagonismus” value (Maus [3]; mouse, 0,25 mg/kg i.p.) of the same compound?
A: The value was 55%.

Q: What about the “Dauer der Unbeweglichkeit” value (Maus [3]; mouse, 0,25 mg/kg i.p.) of the same compound?
A: The value was 41 ± 6 p < 0,01 Sekunden.

Q: What about the “% Antagonismus” value (Maus [3]; mouse, 1 mg/kg i.p.) of the same compound?
A: The value was 66%.

Q: And the “Dauer der Unbeweglichkeit” value (Maus [3]; mouse, 1 mg/kg i.p.)?
A: The value was 31 ± 6 p < 0,01 Sekunden.

Q: What about the “% Antagonismus” value (Maus [3]; mouse, 4 mg/kg i.p.) of the same compound?
A: Its value is 80%.

Q: And the “Dauer der Unbeweglichkeit” value (Maus [3]; mouse, 4 mg/kg i.p.)?
A: Its value is 18 ± 5 p < 0,001 Sekunden.

Q: And the minimal effective dose [4]?
A: The minimal effective dose was 2 mg/kg.

Q: `CCOc1ccccc1OCC1CNCCO1` (stereo not drawn) [VILOXAZIN, reference compound] was tested. Which minimal effective dose ([1]; read-out: Erste wirksame Dosis Reserpin, i.p., Tabelle Ib) did it give?
A: The minimal effective dose was 4 mg/kg.

Q: What about the minimal effective dose (Apomorphin 16 mg/kg; read-out: Erste wirksame Dosis Apomorphin 16 mg.kg^-1 s.c., i.p., Tabelle Ib) of the same compound?
A: Its minimal effective dose is 8 mg/kg.

Q: And the minimal effective dose [5]?
A: The minimal effective dose was 4 mg/kg.

Q: And the minimal effective dose (Toxizität des Yohimbins; read-out: Erste wirksame Dosis Yohimbin, i.p., Tabelle Ib)?
A: The minimal effective dose was 8 mg/kg.

Q: What about the Motilität (Motoraktivität; Tabelle Ib) of the same compound?
A: Its Motilität is “↘”.

Q: What about the minimal effective dose (Motoraktivität) of the same compound?
A: The minimal effective dose was 16 mg/kg.

Q: What about the minimal effective dose (Maus [3]) of the same compound?
A: Its minimal effective dose is 8 mg/kg.

Q: And the minimal effective dose [4]?
A: Its minimal effective dose is over 32 mg/kg.
